In patent publication US6352976B1, “Selective inhibitors of MMP-12” (Aventis Pharmaceuticals Inc., priority 1998, dated 2002):

Molecular target: T1, MMP-12 (macrophage metalloelastase) (Homo sapiens, UniProt P39900)
T1 construct: made in house
Experiment: Determination of the inhibition constant (Ki) for MMP-12, fluorogenic substrate
Type: biochemical
Conditions: compared to their N-methylamide derivatives (Examples 6 and 7); from Ki values of Table 2
Procedure: MMP-12 (EC3.4.24.65) was cloned, expressed and purified according to Shapiro, S. D. et al., J Biol. Chem. 268, 23824-23829 (1993). […] Aliquots of MMP-12 were stored at −70° C.
The potency of inhibitors of MMP-12 was measured using either quartz cuvettes or microtiter plates. The activity of MMP-12 was measured using a fluorogenic substrate, Mca-Pro-Leu-Gly-Leu-Dpa-Ala-Arg-NH2 SEQ ID NO1, Knight, C. G. et al., FEBS Lett. 296,263-266 (1992), at 25° C. in an assay buffer containing 50 mM Tris, pH 7.6, 0.2 M sodium chloride, 50 mM calcium chloride, and 0.02% Brij-35. The increase in fluorescence due to cleavage of Gly-Leu peptide bond by MMP-12 was monitored with a Perkin-Elmer LS50B Fluorimeter (λex 328 nm, λem 393 nm, excitation slit 2.5, emission slit 10) for the cuvette assay and with a Molecular Devices Fmax fluorescence plate reader (λex 320 nm, λem 405 nm) for the microtiter plate assay. Substrate and inhibitor stock solutions were made in N,N-dimethylformamide (DMF) and 0.1% HCl-DMF, respectively.
Ki values were determined using the cuvette method by preparing a series of intermediate inhibitors solutions in 0.1% HCl-DMF and mixing the inhibitor with substrate (final concentration 2 μM) in a quartz cuvette containing 2 ml of assay buffer. MMP-12 was added to start the reaction at a concentration of 2 nM and progress curves were generated. For routine measurement of a Ki value for a reversible competitive inhibitor, the initial rates in the presence of at least four inhibitor concentrations (two concentrations above and two concentrations below the Ki) were measured [S]=2 μM (<<Km) and [MMP-12]=2 nM. Under these conditions, the measured Ki,app is close to the true Ki.
Ki values were determined using the microtiter plate method in a manner similar to that described for the cuvette method with some modifications. Four different inhibitor concentrations (50 μl in assay buffer) of each compound were added to separate wells of a microtiter plate and substrate was added (100 μl) to get a final concentration of […]. MMP-12 was added to a final concentration of 2 nM (50 μl) to start the reaction. Cleavage of substrate was recorded every 30 seconds for 30 minutes and progress curves were generated.
The Ki for a competitive inhibitor was calculated using: V0/Vi=(1+[I]/Ki,app) and Ki=Ki,app/(1+[S]/Km), where V0 is the initial rate in the absence of inhibitor, Vi is the initial rate in the presence of inhibitor at the concentration of [I], [S] is the substrate concentration, and Km is the Michaelis constant. If slow binding is observed (i.e. if the approach to the binding equilibrium is slow), the final steady-state rate rather than the initial rate is taken as Vi.

T1 sequence (P39900 106-263 limits assumed): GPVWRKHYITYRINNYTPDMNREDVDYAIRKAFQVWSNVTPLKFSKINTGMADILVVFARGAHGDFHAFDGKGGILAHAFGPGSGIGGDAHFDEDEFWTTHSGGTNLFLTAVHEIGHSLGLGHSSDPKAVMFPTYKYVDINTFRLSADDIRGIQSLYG

| Structure (SMILES) | selectivity for MMP-12 over MMP-1, MMP-2, and MMP-3 |
| --- | --- |
| CCCC(S)C(=O)N[C@@H](CCc1ccccc1)C(=O)N[C@@H](Cc1ccccc1)C(=O)O (some centres unmarked) [Example 1, 2-Mercapto-pentanoyl-(L)-homo-phenylalanyl-(L)-phenylalanine] | selective for MMP-12 over MMP-1, MMP-2, and MMP-3 |
| CC(C)[C@H](S)C(=O)N[C@@H](CCc1ccccc1)C(=O)N[C@@H](Cc1ccccc1)C(=O)O [Example 2, (S)-2-Mercapto-3-methylbutyroyl-(L)-homo-phenylalanyl-(L)-phenylalanine] | selective for MMP-12 over MMP-1, MMP-2, and MMP-3 |
